The values that follow come from ChEMBL document CHEMBL1201862, “PubChem BioAssay data set” (2004).

Common to all, as to experiment: DTP human tumour cell line panel, 48 h
In experiment [1] the test system is NCI-H23.
Experiment [2] has as its system TK-10.
The test system of experiment [3] is HOP-62.
For experiment [4], the system named is OVCAR-3.
The subject of experiment [5] is SK-OV-3.
Experiment [6] has as its system UACC-257.
Experiment [7] has as its system 786-0.
The test system of experiment [8] is NCI-H460.
Experiment [9] relates to SNB-75.
The subject of experiment [10] is Malme-3M.
Experiment [11] deals with ACHN.
For experiment [12], the system named is SF-295.
For experiment [13], the system named is RPMI-8226.
In experiment [14] the test system is MDA-MB-231.
The subject of experiment [15] is SK-MEL-5.
For experiment [16], the system named is SK-MEL-2.
Experiment [17] concerns EKVX.
The subject of experiment [18] is HOP-92.
Experiment [19] relates to OVCAR-4.

The structures appear in SMILES notation.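 Briefly, cells in 96-well plates were exposed to five compound concentrations for 48 h, and endpoints were estimated by linear interpolation. At the GI50, growth is halved.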 Active and inactive are the calls of the source. Rule as the data show it: active = GI50 up to about 1.1 µM and inactive = higher.

The term GI50 denotes the concentration giving 50% growth inhibition.

For `O=C1CC2(CCN(Cc3ccccc3)CC2)C(=O)N1N1CCCCC1`, the GI50 in experiment [1], in experiment [2], in experiment [3], in experiment [4], in experiment [5] and in experiment [6] was > 100 µM (inactive) each time. For the same molecule, the GI50 in experiment [7], in experiment [8], in [9], in [10], in [11] and in [12] was > 100 µM (inactive) in each case. In addition, the GI50 in experiment [13], in experiment [14], in experiment [15] and in [16] was > 100 µM (inactive) in each case.

Take `O=C(/C=C\c1ccc(Cl)cc1Cl)c1cccs1`: the GI50 in [1] is 19.2 µM (inactive); in experiment [2], 24.5 µM (inactive); in [3], 24.3 µM (inactive); in experiment [4], 28.4 µM (inactive); in experiment [5], 26.1 µM (inactive); in experiment [6], 19.5 µM (inactive). The GI50 in experiment [7] is 17.5 µM (inactive); in experiment [8] it was 23.9 µM (inactive); in experiment [9], 25.2 µM (inactive); in [10], 21.4 µM (inactive); in [11] it was 14.7 µM (inactive); in experiment [12], 18.3 µM (inactive). Moreover, the GI50 in experiment [13] was 3.61 µM (inactive); in experiment [14] it was 16.7 µM (inactive); in experiment [17] it was 16.9 µM (inactive); in experiment [15] it was 16.3 µM (inactive); in experiment [16], 18.9 µM (inactive); in [18] it was 26.4 µM (inactive).

With `C#C[C@]1(O)CC[C@H]2[C@@H]3CCC4=C/C(=N/CCOC(=O)c5cccc6c(=O)c7ccccc7[nH]c56)CC[C@@H]4[C@H]3CC[C@@]21C`, the GI50 was 32.7 µM (inactive) in experiment [1]; 45.8 µM (inactive) in experiment [2]; 37.2 µM (inactive) in experiment [3]; 33.5 µM (inactive) in [4]; 51.5 µM (inactive) in experiment [5]; 43.2 µM (inactive) in experiment [6]. Moreover, the GI50 is 42.4 µM (inactive) in experiment [7]; 32.7 µM (inactive) in experiment [8]; 34.6 µM (inactive) in experiment [10]; 40.4 µM (inactive) in experiment [11]; 23 µM (inactive) in experiment [12]; 32.7 µM (inactive) in [19]. The GI50 in experiment [14] is 15.7 µM (inactive); in experiment [17], 46.3 µM (inactive); in experiment [15], 28 µM (inactive); in experiment [16], 30.1 µM (inactive); in experiment [18], 23.1 µM (inactive).

Take `CC1CC(=O)Nc2nc3ccccc3n21` (stereo not given): the GI50 in [1], in experiment [2], in experiment [3], in experiment [4], in experiment [5] and in experiment [6] was > 100 µM (inactive) each time. Further, the GI50 in [7], in experiment [8], in experiment [10], in [11], in [12] and in [19] was > 100 µM (inactive) in each case. Besides, the GI50 in [13] was > 100 µM (inactive); in [14], > 100 µM (inactive); in [17] it was 0.953 µM (active); in experiment [15] it was > 100 µM (inactive); in experiment [16] it was > 100 µM (inactive); in experiment [18], > 100 µM (inactive).

Turning to `COc1ccc2cc1Oc1ccc(cc1)C(Sc1ccccc1)CCOC(=O)CC2` (stereo not given), the GI50 in experiment [1], in experiment [2], in [3], in [4], in [5] and in experiment [6] was > 100 µM (inactive) throughout. Also, the GI50 in experiment [7], in [9], in experiment [10], in [11], in experiment [12] and in experiment [19] was > 100 µM (inactive) each time. For the same molecule, the GI50 was 13.4 µM (inactive) in experiment [13]; 54 µM (inactive) in experiment [14]; > 100 µM (inactive) in [17]; 63.1 µM (inactive) in [15]; > 100 µM (inactive) in experiment [16].

In the case of `COc1cc(C(=O)O)c(-c2cc3c(cc2C=O)OCO3)c(OC)c1OC`, the GI50 in experiment [1], in experiment [2], in [3], in experiment [4], in experiment [5] and in [6] was > 10 µM (inactive) each time. Moreover, the GI50 is > 10 µM (inactive) in experiment [7]; > 10 µM (inactive) in experiment [9]; > 10 µM (inactive) in experiment [10]; > 10 µM (inactive) in experiment [11]; 4.82 µM (inactive) in experiment [12]; > 10 µM (inactive) in experiment [19]. The GI50 in experiment [13], in experiment [14], in experiment [15] and in experiment [18] was > 10 µM (inactive) throughout.

As to `COc1ccc2c(c1)CC1COc3cc(OC)ccc3C1O2` (stereo not given), the GI50 in experiment [1], in [2], in [3], in experiment [4], in experiment [5] and in experiment [6] was > 100 µM (inactive) throughout. Also, the GI50 in experiment [7] was 38.1 µM (inactive); in experiment [10], > 100 µM (inactive); in [12], 77.3 µM (inactive); in experiment [13], > 100 µM (inactive); in [14], > 100 µM (inactive); in [17], > 100 µM (inactive). In addition, the figures for the GI50 in [15], in [16] and in [18] were 72.3 µM (inactive), > 100 µM (inactive) and > 100 µM (inactive), respectively.

Regarding `CC(=S)NC=C(C(N)=O)C(N)=O`, the GI50 in [1], in [3], in experiment [4], in experiment [5], in experiment [6] and in experiment [7] was > 100 µM (inactive) each time. Also, the GI50 in experiment [9], in [10], in experiment [11], in experiment [12], in [13] and in experiment [14] was > 100 µM (inactive) throughout. The GI50 in experiment [17] was > 100 µM (inactive); in experiment [15], > 100 µM (inactive); in experiment [16], > 100 µM (inactive); in [18], 3.26 µM (inactive).

For the molecule `CNC(=S)/N=c1/sc(NC)nc2sc3c(c12)CCCC3`, the GI50 was > 100 µM (inactive) in experiment [1]; > 100 µM (inactive) in [2]; 55 µM (inactive) in experiment [3]; > 100 µM (inactive) in experiment [4]; 64.6 µM (inactive) in [5]; > 100 µM (inactive) in experiment [6]. Also, the GI50 was 38.1 µM (inactive) in [7]; > 100 µM (inactive) in experiment [8]; > 100 µM (inactive) in [10]; > 100 µM (inactive) in experiment [11]; 30.8 µM (inactive) in experiment [12]; > 100 µM (inactive) in [19]. In addition, the GI50 in experiment [13] was > 100 µM (inactive); in [14], 51.9 µM (inactive); in [17], 76.6 µM (inactive); in [15] it was > 100 µM (inactive); in experiment [16], > 100 µM (inactive); in experiment [18] it was 37.3 µM (inactive).

For `C1CSC[C@H]2COC[C@@H](CSCCS1)S2`, the GI50 in experiment [1] was > 100 µM (inactive); in experiment [2] it was 50.4 µM (inactive); in experiment [3], > 100 µM (inactive); in experiment [4], > 100 µM (inactive); in experiment [6], > 100 µM (inactive); in [7] it was > 100 µM (inactive). In addition, the GI50 is > 100 µM (inactive) in experiment [8]; 56 µM (inactive) in experiment [9]; > 100 µM (inactive) in [12]; > 100 µM (inactive) in experiment [19]; > 100 µM (inactive) in [14]; > 100 µM (inactive) in [17]. Moreover, the GI50 in experiment [15] and in [18] was > 100 µM (inactive) throughout.

As to `CN(C)CCCNc1ccc2nnn3c4ccc(OC(=O)c5ccc([N+](=O)[O-])cc5)cc4c(=O)c1c23`, the GI50 in experiment [1] is 6.73 µM (inactive); in experiment [2] it was 5.82 µM (inactive); in experiment [3] it was 3.54 µM (inactive); in experiment [4], 10.9 µM (inactive); in experiment [5] it was 6.98 µM (inactive); in [6], 11.7 µM (inactive). For the same molecule, the GI50 in experiment [7] is 1.52 µM (inactive); in experiment [8], 0.467 µM (active); in [10] it was 4.92 µM (inactive); in experiment [11], 1.5 µM (inactive); in experiment [12] it was 5.6 µM (inactive); in experiment [19] it was 2.47 µM (inactive). The GI50 in experiment [13] is 2.44 µM (inactive); in experiment [14], 9.04 µM (inactive); in [17], 8.85 µM (inactive); in [16], 18.8 µM (inactive); in [18], 10.6 µM (inactive).

Turning to `CN1C/C(=C\c2cccs2)C(=O)/C(=C/c2cccs2)C1`, the GI50 in experiment [1] is 31.2 µM (inactive); in experiment [2], 38.1 µM (inactive); in experiment [3] it was 33 µM (inactive); in experiment [4], 29.3 µM (inactive); in experiment [5] it was 33.2 µM (inactive); in [6], 30 µM (inactive). The GI50 in experiment [7] is 17.7 µM (inactive); in [8] it was 24.3 µM (inactive); in experiment [10] it was 40.1 µM (inactive); in [11], 25.9 µM (inactive); in experiment [12] it was 53.8 µM (inactive); in experiment [19] it was 18.7 µM (inactive). Also, the GI50 in [13] is 5.53 µM (inactive); in [14], 18.3 µM (inactive); in experiment [17], 19.1 µM (inactive); in experiment [15], 38.5 µM (inactive); in experiment [16], 20.8 µM (inactive); in [18], 2.51 µM (inactive).
